Data published in patent US10556865B2, “Synergistic herbicidal composition containing certain pyridine or pyrimidine carboxylic acids and certain cereal and rice herbicides” (Dow AgroSciences, LLC, priority 2007, dated 2020).
Values joined by “and” are separate entries in the source; they are usually repeats but may differ in a detail not shown here. Equal entries are not always repeated.

How the values were obtained:
Type in all cases: in vivo
[1] = test system: Fimbristylis miliacea (L.) VAHL (FIMMI); test: Herbicidal mixtures for weed control in transplanted paddy rice (in-water application, visual % injury)
Procedure: (§1) Weed seeds or nutlets of the desired test plant species were planted in puddled soil (mud) prepared by mixing a non-sterilized mineral soil (28 percent silt, 18 percent clay, and 54 percent sand, with a pH of about 7.3 to 7.8 and an organic matter content of about 1.0 percent) and water at a ratio of 100 kilograms (kg) of soil to 19 L of water. The prepared mud was dispensed in 250 mL aliquots into 480 mL non-perforated plastic pots with a surface area of 91.6 square centimeters leaving a headspace of 3 centimeters in each pot. Rice seeds were planted in Sun Gro MetroMix® 306 planting mixture, which typically has a pH of 6.0 to 6.8 and an organic matter content of about 30 percent, in plastic plug trays. Seedlings at the second or third leaf stage of growth were transplanted into 650 mL of mud contained in 960 mL non-perforated plastic pots with a surface area of 91.6 cm^2 4 days prior to herbicide application. The paddy was created by filling the 3 centimeter headspace of the pots with water. […] The plants were grown for 4-14 days in a greenhouse with an approximate 14 hr photoperiod which was maintained at about 29° C. during the day and 26° C. during the night. Nutrients were added as Osmocote (17:6:10, N:P:K+minor nutrients) at 2 g per cup. Water was added on a regular basis to maintain the paddy flood, and supplemental lighting was provided with overhead metal halide 1000-Watt lamps as necessary. The plants were employed for testing when they reached the second or third true leaf stage.
(§2) Treatments consisted of esters or salts of compound A, compound C, or compound D and various herbicidal components alone and in combination. For technical grade compounds, a weighed amount, determined by the highest rate to be tested, was placed in an individual 120 mL glass vial and was dissolved in 20 mL of acetone to obtain concentrated stock solutions. […] The concentrated stock solutions obtained were diluted with 20 mL of an aqueous mixture containing 2.5% Agri-dex crop oil concentrate (v/v). For formulated compounds, a measured amount, determined by the highest rate to be tested, was placed in an individual 120 mL glass vial and was dissolved in 20 mL of 2.5% (v/v) Agri-dex crop oil concentrate to obtain concentrated stock solutions. The concentrated stock solutions obtained were diluted with 20 mL of acetone. Applications were made by injecting an appropriate amount of the stock solution into the aqueous layer of the paddy. Control plants were treated in the same manner with the solvent blank. All treated plant material received the same concentration of acetone and crop oil concentrate.
(§3) Forms of compounds A, C, and D were applied on an acid equivalent basis. Other herbicidal components were applied on an active ingredient basis and included acetolactate synthase (ALS)-inhibiting herbicides penoxsulam (triazolopyrimidine chemical class) applied as Grasp SC, […] (sulfonylurea chemical class) applied as Sirius G, and bensulfuron-methyl (sulfonylurea chemical class) applied as Londax; acetyl CoA carboxylase (ACCase) inhibiting herbicides cyhalofop-butyl applied as Clincher G and fenoxaprop-p-ethyl applied as Ricestar HT; auxinic herbicide quinclorac applied as Facet 75 DF; phytoene desaturase inhibiting herbicide norflurazon; and p-hydroxyphenylpyruvate dioxygenase (HPPD) inhibiting herbicide sulcotrione applied as Mikado.
(§4) The treated plants and control plants were placed in a greenhouse as described above and water was added as needed to maintain a paddy flood. After 3 weeks the condition of the test plants as compared with that of the untreated plants was determined visually and scored on a scale of 0 to 100 percent where 0 corresponds to no injury and 100 corresponds to complete kill.

[2] = test system: Leptochloa chinensis (L.) NEES (LEFCH); test: as above
Procedure: (§5) Weed seeds or nutlets of the desired test plant species were planted in puddled soil (mud) prepared by mixing a non-sterilized mineral soil (28 percent silt, 18 percent clay, and 54 percent sand, with a pH of about 7.3 to 7.8 and an organic matter content of about 1.0 percent) and water at a ratio of 100 kilograms (kg) of soil to 19 L of water. The prepared mud was dispensed in 250 mL aliquots into 480 mL non-perforated plastic pots with a surface area of 91.6 square centimeters leaving a headspace of 3 centimeters in each pot. Rice seeds were planted in Sun Gro MetroMix® 306 planting mixture, which typically has a pH of 6.0 to 6.8 and an organic matter content of about 30 percent, in plastic plug trays. Seedlings at the second or third leaf stage of growth were transplanted into 650 mL of mud contained in 960 mL non-perforated plastic pots with a surface area of 91.6 cm^2 4 days prior to herbicide application. The paddy was created by filling the 3 centimeter headspace of the pots with water. When required to ensure good germination and healthy plants, a fungicide treatment and/or other chemical or physical treatment was applied. The plants were grown for 4-14 days in a greenhouse with an approximate 14 hr photoperiod which was maintained at about 29° C. during the day and 26° C. during the night. Nutrients were added as Osmocote (17:6:10, N:P:K+minor nutrients) at 2 g per cup. Water was added on a regular basis to maintain the paddy flood, and supplemental lighting was provided with overhead metal halide 1000-Watt lamps as necessary. The plants were employed for testing when they reached the second or third true leaf stage.
as §2, §3, §4

[3] = test system: Eleocharis kuroguwai OHWI (ELOKU); test: as above
Procedure: as §5, §2, §3, §4

[4] = test system: Sphenoclea zeylanica GAERTN. (SPDZE); test: as above
Procedure: as §5, §2, §3, §4

[5] = test system: Scirpus maritimus L. (SCPMA); test: as above
Procedure: as §5, §2, §3, §4

Cyperus species (CYPSS) = test: as above
Procedure: as §5, §2, §3, §4

[6] = test system: Echinochloa species (ECHSS); test: Herbicidal mixtures for weed control in transplanted paddy rice (in-water application, visual % injury after 3 weeks); details: ECHCG
Procedure: as §5, §2, §3, §4

[7] = test system: Polygonum pensylvanicum L. (POLPY); test: Postemergence herbicidal mixtures for weed control in direct seeded rice (greenhouse, visual % injury); details: alone 100 g/ha
Scirpus species (SCPSS) = test: Herbicidal mixtures for weed control in transplanted paddy rice (in-water application, visual % injury); details: SCPJU; 90 g/ha alone
Procedure: as §1, §2, §3, §4

[8] = test system: Cyperus esculentus L. (CYPES); test: Postemergence herbicidal mixtures for weed control in direct seeded rice (greenhouse, visual % injury)
[9] = test system: Ipomoea hederacea (L.) JACQ. (IPOHE); test: Postemergence herbicidal mixtures for weed control in direct seeded rice (greenhouse, visual % injury after 3 weeks)
Cyperus iria L. (CYPIR) = test: Postemergence herbicidal mixtures for weed control in direct seeded rice (greenhouse, visual % injury)

CCN(CC)CC.COc1c(Cl)ccc(-c2cc(N)c(Cl)c(C(=O)O)n2)c1Cl [Compound C TEA]
95%: % Injury Ob ([2]; 70 g/ha alone)
25%: % Injury Ob ([6]; 70 g/ha alone)
60%: % Injury Ob (Cyperus species (CYPSS); CYPIR, 70 g/ha alone)
0%: % Injury Ob ([1]; 35 g/ha alone) | % Injury Ob ([1]; 70 g/ha alone) | % Injury Ob ([3]; 35 g/ha alone) | % Injury Obs ([3]; 35 g/ha alone) | % Injury Ob ([5]; 35 g/ha alone) | % Injury Ob ([5]; 70 g/ha alone) | % Injury Ob (Cyperus species (CYPSS); CYPES, 35 g/ha alone) | % Injury Ob ([6]; 35 g/ha alone)
40%: % Injury Ob (Cyperus species (CYPSS); CYPES, 70 g/ha alone)
50%: % Injury Ob ([2]; 35 g/ha alone) | % Injury Ob ([3]; 70 g/ha alone) | % Injury Obs ([3]; 70 g/ha alone) | % Injury Ob ([4]; 35 g/ha alone)
20%: % Injury Ob (Cyperus species (CYPSS); CYPIR, 35 g/ha alone)
80%: % Injury Ob ([4]; 70 g/ha alone)

CCCCOC(=O)[C@@H](C)Oc1ccc(Oc2ccc(C#N)cc2F)cc1 [Cyhalofop-butyl]
0%: % Injury POLPY Ob [7] | % Injury Ob (Scirpus species (SCPSS)) | % Injury Ob ([1]; 90 g/ha alone) | % Injury CYPES Ob ([8]; alone 100 g/ha) | % Injury CYPES Ob ([8]; alone 200 g/ha) | % Injury Ob ([4]; 90 g/ha alone) | % Injury Ob ([5]; 90 g/ha alone) | % Injury Ob (Cyperus species (CYPSS); CYPES, 90 g/ha alone) | % Injury Ob (Cyperus species (CYPSS); CYPIR, 90 g/ha alone) | % Injury IPOHE Ob ([9]; alone 140 g/ha) | % Injury IPOHE Ob ([9]; alone 280 g/ha) | % Injury CYPIR Ob (Cyperus iria L. (CYPIR); alone 140 g/ha) | % Injury CYPIR Ob (Cyperus iria L. (CYPIR); alone 280 g/ha)
50%: % Injury Ob ([2]; 90 g/ha alone) | % Injury Ob ([6]; 90 g/ha alone)
75% and 95%: % Injury Ob ([6]; 180 g/ha alone)
